Results as given in PubChem BioAssay AID192 (DTP/NCI, 2004).
“And” between values parts separate entries of the source, which are not always exact repeats. Equal entries are not always repeated. Toxic doses and inconclusive results are not listed.

Test system: BDF1 mice, B16 melanoma ip, median survival T/C
Assay: NCI In Vivo Anticancer Drug Screen. Data for tumor model B16 Melanoma (intraperitoneal) in B6D2F1 (BDF1) mice
Settings: endpoint: median survival time, higher = longer survival
In short: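 Mice with transplantable tumors; drug vs vehicle groups; endpoint survival or tumor size; value = T/C.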

[1] = dose: 50.0 mg/kg/injection, schedule: Q01DX009 (ip), vehicle: saline
[2] = dose: 100.0 mg/kg/injection, schedule: Q01DX009 (ip), vehicle: saline
[3] = dose: 200.0 mg/kg/injection, schedule: Q01DX009 (ip), vehicle: saline
[4] = dose: 25.0 mg/kg/injection, schedule: Q01DX009 (ip), vehicle: saline with Tween-80
[5] = dose: 50.0 mg/kg/injection, schedule: Q01DX009 (ip), vehicle: saline with Tween-80
[6] = dose: 100.0 mg/kg/injection, schedule: Q01DX009 (ip), vehicle: saline with Tween-80
[7] = dose: 200.0 mg/kg/injection, schedule: Q01DX009 (ip), vehicle: saline with Tween-80
[8] = dose: 6.25 mg/kg/injection, schedule: Q01DX009 (ip), vehicle: Klucel (hydroxypropylcellulose) (HPC)
[9] = dose: 12.5 mg/kg/injection, schedule: Q01DX009 (ip), vehicle: Klucel (hydroxypropylcellulose) (HPC)
[10] = dose: 25.0 mg/kg/injection, schedule: Q01DX009 (ip), vehicle: Klucel (hydroxypropylcellulose) (HPC)
[11] = dose: 50.0 mg/kg/injection, schedule: Q01DX009 (ip), vehicle: Klucel (hydroxypropylcellulose) (HPC)
[12] = dose: 100.0 mg/kg/injection, schedule: Q01DX009 (ip), vehicle: Klucel (hydroxypropylcellulose) (HPC)
[13] = dose: 200.0 mg/kg/injection, schedule: Q01DX009 (ip), vehicle: Klucel (hydroxypropylcellulose) (HPC)
[14] = dose: 400.0 mg/kg/injection, schedule: Q01DX009 (ip), vehicle: Klucel (hydroxypropylcellulose) (HPC)
[15] = dose: 3.12 mg/kg/injection, schedule: Q01DX009 (ip), vehicle: Klucel (hydroxypropylcellulose) (HPC)
[16] = dose: 6.25 mg/kg/injection, schedule: Q01DX009 (ip), vehicle: saline
[17] = dose: 12.5 mg/kg/injection, schedule: Q01DX009 (ip), vehicle: saline
[18] = dose: 25.0 mg/kg/injection, schedule: Q01DX009 (ip), vehicle: saline

CC(=O)/C(N=O)=C(/C)O
T/C [1]: 110 % of control
T/C [2]: 105 % of control
T/C [3]: 97 % of control

C[CH2][Pb]([CH2]C)([CH2]C)[O]C(=O)c1ccccc1
T/C (dose: 0.75 mg/kg/injection, schedule: Q01DX009 (ip), vehicle: Klucel (hydroxypropylcellulose) (HPC)): 93 % of control
T/C (dose: 1.5 mg/kg/injection, schedule: Q01DX009 (ip), vehicle: Klucel (hydroxypropylcellulose) (HPC)): 90 % of control

CCCN1COC(OCC)C(C)(C)C1 (centres undefined)
T/C [4]: 104 % of control
T/C [5]: 100 % of control
T/C [6]: 98 % of control
T/C [7]: 100 % of control

O=C1CCNC(=O)N1OS(=O)(=O)c1ccccc1
T/C [8]: 106 % of control
T/C [9]: 100 % of control
T/C [10]: 98 % of control

CC1=C/C(=N\NS(=O)(=O)c2ccc([N+](=O)[O-])cc2)CC(C)(C)C1
T/C [11]: 94 % of control
T/C [12]: 93 % of control
T/C [13]: 96 % of control
T/C [14]: 88 % of control

O=C(Cl)COc1cccc2ccccc12
T/C [12]: 103 % of control
T/C [13]: 110 % of control
T/C [14]: 106 % of control

CC12CC3OC(=O)C1COC14OC5(C2C1=O)C(O)(CCC1C4CC(O)C2(O)CC=CC(=O)C12C)C(=O)OC35C (centres undefined)
T/C (dose: 3.0 mg/kg/injection, schedule: Q01DX009 (ip), vehicle: Klucel (hydroxypropylcellulose) (HPC)): 120 % of control
T/C (dose: 6.0 mg/kg/injection, schedule: Q01DX009 (ip), vehicle: Klucel (hydroxypropylcellulose) (HPC)): 98 % of control and 124 % of control
T/C (dose: 12.0 mg/kg/injection, schedule: Q01DX009 (ip), vehicle: Klucel (hydroxypropylcellulose) (HPC)): 110 % of control and 118 % of control
T/C (dose: 24.0 mg/kg/injection, schedule: Q01DX009 (ip), vehicle: Klucel (hydroxypropylcellulose) (HPC)): 113 % of control and 120 % of control
T/C (dose: 48.0 mg/kg/injection, schedule: Q01DX009 (ip), vehicle: Klucel (hydroxypropylcellulose) (HPC)): 120 % of control

C/C=C/CNc1ccc(C)cc1
T/C [4]: 102 % of control
T/C [5]: 102 % of control
T/C [6]: 92 % of control

Clc1ccc(/C(=[C](\[Hg]/[C](=C(\c2ccccc2)c2ccc(Cl)cc2)c2ccccc2)c2ccccc2)c2ccccc2)cc1
T/C [12]: 105 % of control
T/C [13]: 100 % of control
T/C [14]: 94 % of control

CCOC(=O)c1c(N)[nH]c(SSc2[nH]c(N)c(C(=O)OCC)c2C(=O)OCC)c1C(=O)OCC
T/C (dose: 75.0 mg/kg/injection, schedule: Q01DX009 (ip), vehicle: saline): 89 % of control
T/C (dose: 300.0 mg/kg/injection, schedule: Q01DX009 (ip), vehicle: saline): 97 % of control

O=[N+]([O-])c1ccc(/C=N\Nc2ccc([N+](=O)[O-])cn2)cc1
T/C (dose: 0.78 mg/kg/injection, schedule: Q01DX009 (ip), vehicle: Klucel (hydroxypropylcellulose) (HPC)): 106 % of control
T/C (dose: 1.56 mg/kg/injection, schedule: Q01DX009 (ip), vehicle: Klucel (hydroxypropylcellulose) (HPC)): 97 % of control
T/C [15]: 86 % of control
T/C [8]: 97 % of control
T/C [9]: 86 % of control

CNC(=S)NCc1ccc(C(=O)NC(C)C)cc1
T/C [10]: 101 % of control
T/C [11]: 99 % of control
T/C [12]: 118 % of control
T/C [13]: 118 % of control

C=C1C(=O)OC2CC(C)C3(O)CCC(C)(CC(OC(=O)C(C)C)C12)O3 (centres undefined)
T/C [11]: 99 % of control
T/C [12]: 97 % of control
T/C [13]: 98 % of control

CNc1ccccc1C(N)=O
T/C [12]: 94 % of control
T/C [13]: 100 % of control

O=c1cc(-c2ccccc2)[nH]c(=S)[nH]1
T/C [6]: 114 % of control
T/C [7]: 108 % of control

O=P(OCc1ccccc1)(OCc1ccccc1)C(Nc1ccccc1)c1ccccc1 (centres undefined)
T/C [11]: 97 % of control
T/C [12]: 90 % of control
T/C [13]: 90 % of control

CN1CCC(OC2c3ccccc3CCc3ccccc32)CC1
T/C (dose: 3.12 mg/kg/injection, schedule: Q01DX009 (ip), vehicle: saline): 100 % of control
T/C [16]: 104 % of control
T/C [17]: 104 % of control
T/C [18]: 97 % of control

O=C(O)c1cc(O)ccc1O
T/C [18]: 93 % of control
T/C [1]: 100 % of control
T/C [2]: 102 % of control
T/C [3]: 98 % of control

O=C1NC(c2ccccc2)(c2ccccc2)C(=O)N1SC(Cl)(Cl)Cl
T/C [15]: 106 % of control
T/C [8]: 92 % of control
T/C [9]: 103 % of control
T/C [10]: 97 % of control
T/C [11]: 91 % of control

CN(C)C(=S)Nc1ccccc1
T/C [5]: 95 % of control
T/C [6]: 95 % of control
T/C [7]: 90 % of control

CC(C)C(O)(C(=O)NN)C(=O)NN
T/C (dose: 50.0 mg/kg/injection, schedule: Q04DX003 (ip), vehicle: saline): 91 % of control
T/C (dose: 100.0 mg/kg/injection, schedule: Q04DX003 (ip), vehicle: saline): 96 % of control
T/C (dose: 200.0 mg/kg/injection, schedule: Q04DX003 (ip), vehicle: saline): 117 % of control

CC(=O)OCC1OC(n2cnc3c(=S)nc(N)[nH]c32)C(OC(C)=O)C1OC(C)=O (centres undefined)
T/C [16]: 118 % of control
T/C [17]: 105 % of control
T/C [18]: 101 % of control

Cc1ccc(NC(=O)Nc2cccc3ccccc23)cc1Cl
T/C [9]: 94 % of control
T/C [10]: 88 % of control

CC(=O)NC1=C(N2CC2)C(=O)C(NC(C)=O)=C(N2CC2)C1=O
T/C (dose: 0.12 mg/kg/injection, schedule: Q01DX009 (ip), vehicle: saline with Tween-80): 106 % of control and 112 % of control
T/C (dose: 0.25 mg/kg/injection, schedule: Q01DX005 (ip), vehicle: saline with Tween-80): 103 % of control and 109 % of control
T/C (dose: 0.25 mg/kg/injection, schedule: Q01DX009 (ip), vehicle: saline with Tween-80): 107 % of control and 112 % of control
T/C (dose: 0.5 mg/kg/injection, schedule: Q01DX005 (ip), vehicle: saline with Tween-80): 107 % of control
T/C (dose: 0.5 mg/kg/injection, schedule: Q01DX009 (ip), vehicle: saline with Tween-80): 124 % of control
T/C (dose: 1.0 mg/kg/injection, schedule: Q01DX005 (ip), vehicle: saline with Tween-80): 116 % of control and 121 % of control
T/C (dose: 2.0 mg/kg/injection, schedule: Q01DX009 (ip), vehicle: saline with Tween-80): 157 % of control
T/C (dose: 7.0 micrograms/kg/injection, schedule: Q01DX009 (ip), vehicle: saline): 102 % of control
T/C (dose: 15.0 micrograms/kg/injection, schedule: Q01DX009 (ip), vehicle: saline): 95 % of control
T/C (dose: 31.0 micrograms/kg/injection, schedule: Q01DX009 (ip), vehicle: saline): 92 % of control
T/C (dose: 62.0 micrograms/kg/injection, schedule: Q01DX009 (ip), vehicle: saline): 116 % of control
T/C (dose: 125.0 micrograms/kg/injection, schedule: Q01DX009 (ip), vehicle: saline): 95 % of control

N#CCCN(C(=O)COc1ccc(Cl)cc1Cl)C1CCCCC1
T/C [9]: 99 % of control
T/C [10]: 103 % of control
T/C [11]: 98 % of control

Cc1ccc(Cl)cc1NC(=O)c1ccccc1Cl
T/C [12]: 108 % of control
T/C [13]: 98 % of control

c1ccc2c(c1)C1=NCCN1c1ccccc1-2
T/C (dose: 12.0 mg/kg/injection, schedule: Q01DX009 (ip), vehicle: saline with Tween-80): 92 % of control
T/C (dose: 18.0 mg/kg/injection, schedule: Q01DX009 (ip), vehicle: saline with Tween-80): 94 % of control
T/C (dose: 26.0 mg/kg/injection, schedule: Q01DX009 (ip), vehicle: saline with Tween-80): 102 % of control

S=C=NCCCCCCCCCCCCN=C=S
T/C (dose: 3.12 mg/kg/injection, schedule: Q01DX009 (ip), vehicle: saline with Tween-80): 99 % of control
T/C (dose: 6.25 mg/kg/injection, schedule: Q01DX009 (ip), vehicle: saline with Tween-80): 86 % of control
T/C (dose: 12.5 mg/kg/injection, schedule: Q01DX009 (ip), vehicle: saline with Tween-80): 98 % of control

Nc1ccccc1SC1CC(=O)N(c2ccc(Br)cc2Cl)C1=O (centres undefined)
T/C [11]: 94 % of control

O=C(OC1CC2CC=CC21)c1ccc([N+](=O)[O-])cc1 (centres undefined)
T/C (dose: 100.0 mg/kg/injection, schedule: Q04DX003 (ip), vehicle: saline with Tween-80): 100 % of control
T/C (dose: 200.0 mg/kg/injection, schedule: Q04DX003 (ip), vehicle: saline with Tween-80): 94 % of control
T/C (dose: 400.0 mg/kg/injection, schedule: Q04DX003 (ip), vehicle: saline with Tween-80): 94 % of control

COCCCN1CCN(c2ccccc2OC)CC1
T/C [18]: 101 % of control
T/C [1]: 92 % of control
